Data reported in patent EP2768830B1, “APOPTOSIS-INDUCING AGENTS FOR THE TREATMENT OF CANCER AND IMMUNE AND AUTOIMMUNE DISEASES” (AbbVie Inc., priority 2011, dated 2013).
Read-outs that look alike come from different tables or passages of the source.

Tests used:
[1] = system: mouse FL5.12 cells transfected with Bcl-XL; assay: FL5.12 cellular assay (cell viability, CellTiter-Glo); format: cell-based; settings: FL5.12 cells transfected with Bcl-XL, IL-3-depleted, 3% FBS assay media, 24 hours, CellTiter-Glo, read-out: FL5.12 Bcl-xL, - IL3, EC 50;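 also: each EC50 determination derived from duplicate measurements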
Procedure: For assaying the compound activity, the cells were exchanged into an IL-3-depleted deprivation media, which was identical to the growth media except for the absence of FBS and WEHI-3B conditional media, for 2 days. Then the cells were exchanged to 3% FBS assay media (RPMI with 2 mM glutamine, 1% 100 mM sodium pyruvate, 2% 1 M HEPES, 4 µL/L of β-mercaptoethanol, 1% penicillin-streptomycin, 3% FBS). Compounds in series dilutions were added, and the cells were cultured for 24 hours. Compounds in series dilutions were added, and the cells were cultured for 24 hours. Cell viability was assayed using the CellTiter-Glo assay (Promega Corp., Madison, WI) according to the manufacturer instructions. Individual determinations were the result of duplicate values.

GST-Bcl-xL = GST-Bcl-xL (Homo sapiens, UniProt Q07817); settings: read-out: TR-FRET binding Bcl-xL Ki
Chain of GST-Bcl-xL (Q07817 whole entry): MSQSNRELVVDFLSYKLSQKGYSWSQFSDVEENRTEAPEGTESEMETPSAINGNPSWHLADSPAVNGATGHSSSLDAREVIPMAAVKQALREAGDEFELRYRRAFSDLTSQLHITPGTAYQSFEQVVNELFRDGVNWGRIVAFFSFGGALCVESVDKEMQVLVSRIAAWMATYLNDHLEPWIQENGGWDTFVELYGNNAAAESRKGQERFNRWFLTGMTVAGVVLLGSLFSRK

SMILES | EC50 ([1]; Mus musculus) [nM] | Ki (GST-Bcl-xL) [nM] | EC50 [1] [nM]
CCOC(=O)c1nn(Cc2ccccc2)c(C)c1-c1ccc(N2CCc3cccc(C(=O)Nc4nc5ccccc5s4)c3C2)nc1C(=O)O [Example 33, 6-[8-(1,3-benzothiazol-2-ylcarbamoyl)-3,4-dihydroisoquinolin-2(1H)-yl]-3-[1-benzyl-3-(ethoxycarbonyl)-5-methyl-1H-pyrazol-4-yl]pyridine-2-carboxylic acid] | > 1000 | 169 | 
CN(C)c1cccc(Cn2cc(-c3ccc(N4CCc5cccc(C(=O)Nc6nc7ccccc7s6)c5C4)nc3C(=O)O)cn2)c1 [Example 34, 6-[8-(1,3-benzothiazol-2-ylcarbamoyl)-3,4-dihydroisoquinolin-2(1H)-yl]-3-{1-[3-(dimethylamino)benzyl]-1H-pyrazol-4-yl}pyridine-2-carboxylic acid] | 907 | 23 | 
O=C(Nc1nc2ccccc2s1)c1cccc2c1CN(c1ccc(-c3cnn(Cc4ccccc4O)c3)c(C(=O)O)n1)CC2 [Example 36, 6-[8-(1,3-benzothiazol-2-ylcarbamoyl)-3,4-dihydroisoquinolin-2(1H)-yl]-3-[1-(2-hydroxybenzyl)-1H-pyrazol-4-yl]pyridine-2-carboxylic acid] | > 1000 | 8 | 
O=C(Nc1nc2ccccc2s1)c1cccc2c1CN(c1ccc(-c3cnn(C4CCc5ccccc54)c3)c(C(=O)O)n1)CC2 (stereo not drawn) [Example 37, 6-[8-(1,3-benzothiazol-2-ylcarbamoyl)-3,4-dihydroisoquinolin-2(1H)-yl]-3-[1-(2,3-dihydro-1H-inden-1-yl)-1H-pyrazol-4-yl]pyridine-2-carboxylic acid] | 347 | 17 | 
O=C(Nc1nc2ccccc2s1)c1cccc2c1CN(c1ccc(-c3cnn(CCc4ccccc4)c3)c(C(=O)O)n1)CC2 [Example 38, 6-[8-(1,3-benzothiazol-2-ylcarbamoyl)-3,4-dihydroisoquinolin-2(1H)-yl]-3-[1-(2-phenylethyl)-1H-pyrazol-4-yl]pyridine-2-carboxylic acid] |  | 48 | > 1000
O=C(Nc1nc2ccccc2s1)c1cccc2c1CN(c1ccc(-c3cnn(C4CCOc5ccccc54)c3)c(C(=O)O)n1)CC2 (stereo not drawn) [Example 39, 6-[8-(1,3-benzothiazol-2-ylcarbamoyl)-3,4-dihydroisoquinolin-2(1H)-yl]-3-[1-(3,4-dihydro-2H-chromen-4-yl)-1H-pyrazol-4-yl]pyridine-2-carboxylic acid] | > 1000 | 56 | 
CN(C)CCOc1ccccc1Cn1cc(-c2ccc(N3CCc4cccc(C(=O)Nc5nc6ccccc6s5)c4C3)nc2C(=O)O)cn1 [Example 40, 6-[8-(1,3-benzothiazol-2-ylcarbamoyl)-3,4-dihydroisoquinolin-2(1H)-yl]-3-(1-{2-[2-(dimethylamino)ethoxy]benzyl}-1H-pyrazol-4-yl)pyridine-2-carboxylic acid] | 570 | 16 | 
Cc1c(-c2ccc(N3CCc4cccc(C(=O)Nc5nc6ccccc6s5)c4C3)nc2C(=O)O)cnn1Cc1ccccc1F [Example 41, 6-[8-(1,3-benzothiazol-2-ylcarbamoyl)-3,4-dihydroisoquinolin-2(1H)-yl]-3-[1-(2-fluorobenzyl)-5-methyl-1H-pyrazol-4-yl]pyridine-2-carboxylic acid] | 11 | 1 | 
O=C(Nc1nc2ccccc2s1)c1cccc2c1CN(c1ccc(-c3cnn(CC4CCCCC4)c3)c(C(=O)O)n1)CC2 [Example 42, 6-[8-(1,3-benzothiazol-2-ylcarbamoyl)-3,4-dihydroisoquinolin-2(1H)-yl]-3-[1-(cyclohexylmethyl)-1H-pyrazol-4-yl]pyridine-2-carboxylic acid] | 233 | 2 | 
CN(C)CCCNc1ccc(Cn2cc(-c3ccc(N4CCc5cccc(C(=O)Nc6nc7ccccc7s6)c5C4)nc3C(=O)O)cn2)cc1[N+](=O)[O-] [Example 44, 6-[8-(1,3-benzothiazol-2-ylcarbamoyl)-3,4-dihydroisoquinolin-2(1H)-yl]-3-[1-(4-{[3-(dimethylamino)propyl]amino}-3-nitrobenzyl)-1H-pyrazol-4-yl]pyridine-2-carboxylic acid] | > 1000 | 17 | 
O=C(Nc1nc2ccccc2s1)c1cccc2c1CN(c1ccc(-c3cnn(Cc4ccc(F)c([N+](=O)[O-])c4)c3)c(C(=O)O)n1)CC2 [Example 45, 6-[8-(1,3-benzothiazol-2-ylcarbamoyl)-3,4-dihydroisoquinolin-2(1H)-yl]-3-[1-(4-fluoro-3-nitrobenzyl)-1H-pyrazol-4-yl]pyridine-2-carboxylic acid] | > 1000 | 19 | 
O=C(Nc1nc2ccccc2s1)c1cccc2c1CN(c1ccc(-c3cnn(Cc4ccccc4OCCN4CCOCC4)c3)c(C(=O)O)n1)CC2 [Example 46, 6-[8-(1,3-benzothiazol-2-ylcarbamoyl)-3,4-dihydroisoquinolin-2(1H)-yl]-3-(1-{2-[2-(morpholin-4-yl)ethoxy]benzyl}-1H-pyrazol-4-yl)pyridine-2-carboxylic acid] | > 1000 | 9 | 
CN(C)CCCOc1ccccc1Cn1cc(-c2ccc(N3CCc4cccc(C(=O)Nc5nc6ccccc6s5)c4C3)nc2C(=O)O)cn1 [Example 47, 6-[8-(1,3-benzothiazol-2-ylcarbamoyl)-3,4-dihydroisoquinolin-2(1H)-yl]-3-(1-{2-[3-(dimethylamino)propoxy]benzyl}-1H-pyrazol-4-yl)pyridine-2-carboxylic acid] | 881 | 16 | 
O=C(Nc1nc2ccccc2s1)c1cccc2c1CN(c1ccc(-c3cnn(Cc4ccccc4OCc4ccncc4)c3)c(C(=O)O)n1)CC2 [Example 48, 6-[8-(1,3-benzothiazol-2-ylcarbamoyl)-3,4-dihydroisoquinolin-2(1H)-yl]-3-{1-[2-(pyridin-4-ylmethoxy)benzyl]-1H-pyrazol-4-yl}pyridine-2-carboxylic acid] | > 1000 | 7 | 
Cc1c(-c2ccc(N3CCc4cccc(C(=O)Nc5nc6ccccc6s5)c4C3)nc2C(=O)O)cnn1Cc1ccccc1OCCN(C)C [Example 49, 6-[8-(1,3-benzothiazol-2-ylcarbamoyl)-3,4-dihydroisoquinolin-2(1H)-yl]-3-(1-{2-[2-(dimethylamino)ethoxy]benzyl}-5-methyl-1H-pyrazol-4-yl)pyridine-2-carboxylic acid] | 12 | 0.6 | 
O=C(Nc1nc2ccccc2s1)c1cccc2c1CN(c1ccc(-c3cnn(CC4CCOCC4)c3)c(C(=O)O)n1)CC2 [Example 50, 6-[8-(1,3-benzothiazol-2-ylcarbamoyl)-3,4-dihydroisoquinolin-2(1H)-yl]-3-[1-(tetrahydro-2H-pyran-4-ylmethyl)-1H-pyrazol-4-yl]pyridine-2-carboxylic acid] | > 1000 | 99 | 
CN(C)CC#Cc1ccccc1Cn1cc(-c2ccc(N3CCc4cccc(C(=O)Nc5nc6ccccc6s5)c4C3)nc2C(=O)O)cn1 [Example 51, 6-[8-(1,3-benzothiazol-2-ylcarbamoyl)-3,4-dihydroisoquinolin-2(1H)-yl]-3-(1-{2-[3-(dimethylamino)prop-1-yn-1-yl]benzyl}-1H-pyrazol-4-yl)pyridine-2-carboxylic acid] | > 1000 | 122 | 
O=C(Nc1nc2ccccc2s1)c1cccc2c1CN(c1ccc(-c3cnn(Cc4cccc(F)c4F)c3)c(C(=O)O)n1)CC2 [Example 52, 6-[8-(1,3-benzothiazol-2-ylcarbamoyl)-3,4-dihydroisoquinolin-2(1H)-yl]-3-[1-(2,3-difluorobenzyl)-1H-pyrazol-4-yl]pyridine-2-carboxylic acid] | 570 | 18 | 
